Assay results as given in paper PMC13352219, “Analysis of glutamine synthetase target‐site mutations and their role in endowing glufosinate‐ammonium resistance” (Pest Management Science, 2026).
pIC50: −log10 of the molar value. Where “and” joins values, the source holds several entries; their conditions need not be identical. Identical values can stand only once.

Key:
[1] = target: Amaranthus palmeri GS2.2 wild‐type (WT); test: GS enzyme inhibition assay, GS2.2 wild-type; assay type: biochemical; conditions: GS2.2 WT
Experimental: (§1) GS activity was determined spectrophotometrically following the Sigma‐Aldrich enzymatic assay protocol. The reaction couples the ATP‐dependent conversion of L‐glutamate and ammonium to L‐glutamine with pyruvate kinase (PK) and L‐lactate dehydrogenase (LDH), such that oxidation of β‐NADH to β‐NAD^+ can be monitored at 340 nm. Recombinant GS from A. palmeri was expressed in E. coli, purified by affinity chromatography, and quantified by the Bradford method using bovine serum albumin as standard. […] Reaction mixtures were equilibrated to 37°C and initiated by the addition of enzyme, and the decrease in absorbance at 340 nm was recorded for 5–10 min; only the linear portion of the curve was used for activity calculations. […] Activity was calculated using an extinction coefficient for NADH of 6.22 mM^−1 cm^−1 and expressed as units per mg protein, where one unit corresponds to the formation of 1 μmol of L‐glutamine in […] at pH 7.1 and 37 °C. […] Percent inhibition was calculated relative to untreated (positive) and no‐enzyme (negative) controls. […] Resistance factors were calculated by dividing the IC₅₀ of each mutant variant by that of wild‐type GS.

[2] = tested on: Arabidopsis thaliana plants expressing Amaranthus palmeri GS2.2 G255D; test: Postemergence GFA spray on transgenic Arabidopsis expressing GS2.2 G255D; assay type: in vivo; conditions: 100, 500 and 1000 g ha^−1 postemergence, listed as GFA
Description: Mutant GS variants G2.2 G255D from A. palmeri and G254D from Arabidopsis were cloned into the RTP6557 transformation vector, which was subsequently introduced into Agrobacterium tumefaciens strain C58C1pMP90. The construct also carried an acetolactate synthase (ALS) herbicide‐resistance gene as a selectable marker, ensuring that Arabidopsis seedlings tested for resistance to GFA herbicide expressed the transgene.
Arabidopsis plants carrying immature floral buds were transformed by the floral‐dip method, immersing inflorescences for 10 s in the bacterial suspension supplemented with Silwet‐L77 at 0.05% v/v. After dipping, plants were maintained overnight under high humidity and low light, then transferred to long‐day conditions until maturity. Once siliques had yellowed, seeds were harvested into paper bags. T₁ seeds were collected, placed into Falcon tubes, and stored at 4 °C.
After ≥14 d of cold storage, T₁ seeds were sown and stratified as previously described. Transgenic plants were confirmed by PCR detection of the AHAS resistance marker gene. […]
Herbicide treatments were applied at the 10‐leaf stage using a spray chamber calibrated to deliver 375 L ha^−1 of spray solution. […] Herbicide efficacy was visually evaluated 7 d after application.

[3] = tested on: Amaranthus palmeri cytosolic GS1.1 E131A; test: GS enzyme inhibition assay, GS1.1 E131A; assay type: biochemical
Experimental: as §1

[4] = tested on: Amaranthus palmeri cytosolic GS1.1 E131D; test: GS enzyme inhibition assay, GS1.1 E131D; assay type: biochemical
Experimental: as §1

[5] = tested on: Amaranthus palmeri cytosolic GS1.1 E131G; test: GS enzyme inhibition assay, GS1.1 E131G; assay type: biochemical
Experimental: as §1

[6] = tested on: Amaranthus palmeri cytosolic GS1.1 H249L; test: GS enzyme inhibition assay, GS1.1 H249L; assay type: biochemical
Experimental: as §1

[7] = tested on: Amaranthus palmeri cytosolic GS1.1 R291C; test: GS enzyme inhibition assay, GS1.1 R291C; assay type: biochemical
Experimental: as §1

[8] = tested on: Amaranthus palmeri cytosolic GS1.1 R291H; test: GS enzyme inhibition assay, GS1.1 R291H; assay type: biochemical
Experimental: as §1

[9] = tested on: Amaranthus palmeri cytosolic GS1.1 Y55L; test: GS enzyme inhibition assay, GS1.1 Y55L; assay type: biochemical
Experimental: as §1

[10] = tested on: Amaranthus palmeri cytosolic GS1.1 S58M; test: GS enzyme inhibition assay, GS1.1 S58M; assay type: biochemical
Experimental: as §1

[11] = tested on: Amaranthus palmeri cytosolic GS1.1 V161N; test: GS enzyme inhibition assay, GS1.1 V161N; assay type: biochemical
Experimental: as §1

[12] = tested on: Amaranthus palmeri cytosolic GS1.1 V161S; test: GS enzyme inhibition assay, GS1.1 V161S; assay type: biochemical
Experimental: as §1

[13] = tested on: Amaranthus palmeri cytosolic GS1.1 K165V; test: GS enzyme inhibition assay, GS1.1 K165V; assay type: biochemical
Experimental: as §1

[14] = tested on: Amaranthus palmeri cytosolic GS1.1 K177L; test: GS enzyme inhibition assay, GS1.1 K177L; assay type: biochemical
Experimental: as §1

[15] = tested on: Amaranthus palmeri cytosolic GS1.1 V193T; test: GS enzyme inhibition assay, GS1.1 V193T; assay type: biochemical
Experimental: as §1

[16] = tested on: A. palmeri population from Arkansas (CCR); parameters: method as in ref 16 = [16]; 16 Priess GL , Norsworthy JK , Godara N , Mauromoustakos A , Butts TR , Roberts TL et al ., Confirmation of glufosinate‐resistant palmer amaranth and response to other herbicides . Weed Technol 36 : 3; conditions: CCR population compared with susceptible standards; listed as GFA; cited from earlier work
[17] = read-out: Glufosinate‐ammonium IC50

SMILES: CP(=O)(O)CCC(N)C(=O)O (centres unmarked) [Glufosinate‐ammonium]
- pIC50 [1]: 3.96
- tolerance to GFA (visual injury) [2]: chlorosis and necrosis comparable to wild‐type controls
- Glufosinate‐ammonium % Inhibition at saturation 10 000 μM ([3]; 10 000 μM): 8.5%
- pIC50 [3, 17]: < 2.00
- Glufosinate‐ammonium % Inhibition at saturation 10 000 μM ([4]; 10 000 μM): 48%
- pIC50 [4, 17]: < 2.00
- Glufosinate‐ammonium % Inhibition at saturation 10 000 μM ([5]; 10 000 μM): 7.2%
- pIC50 [5, 17]: < 2.00
- Glufosinate‐ammonium % Inhibition at saturation 10 000 μM ([6]; 10 000 μM): 7.8%
- pIC50 [6, 17]: < 2.00
- Glufosinate‐ammonium % Inhibition at saturation 10 000 μM ([7]; 10 000 μM): 0%
- pIC50 [7, 17]: < 2.00
- Glufosinate‐ammonium % Inhibition at saturation 10 000 μM ([8]; 10 000 μM): 0%
- pIC50 [8, 17]: < 2.00
- Resistance index (RI) ([9]; IC50 variant / IC50 WT): 0.8
- pIC50 [9, 17]: 4.77
- Resistance index (RI) ([10]; IC50 variant / IC50 WT): 4.3
- pIC50 [10, 17]: 4.03
- Resistance index (RI) ([11]; IC50 variant / IC50 WT): 3.0
- pIC50 [11, 17]: 4.19
- Resistance index (RI) ([12]; IC50 variant / IC50 WT): 1.8
- pIC50 [12, 17]: 4.41
- Resistance index (RI) ([13]; IC50 variant / IC50 WT): 1.5
- pIC50 [13, 17]: 4.48
- Resistance index (RI) ([14]; IC50 variant / IC50 WT): 0.1
- pIC50 [14, 17]: 5.89
- Resistance index (RI) ([15]; IC50 variant / IC50 WT): 3.2
- pIC50 [15, 17]: 4.16
- resistance indices [16]: 5.1 and 5.9
